Laboratory results published in patent US8778966B2, “Quinolinone derivatives as PARP and tank inhibitors” (Janssen Pharmaceutica, NV, priority 2007, dated 2014).

The molecules below were run against T1, TANK-2 enzyme (Homo sapiens, UniProt Q9H2K2) (assay: In vitro Scintillation Proximity Assay (SPA) for TANK-2 inhibitory activity). Conditions: read-out: in vitro SPA assay TANK-2 pIC50 (converted).
T1 construct: made in house
T1 sequence (Q9H2K2 1-1166): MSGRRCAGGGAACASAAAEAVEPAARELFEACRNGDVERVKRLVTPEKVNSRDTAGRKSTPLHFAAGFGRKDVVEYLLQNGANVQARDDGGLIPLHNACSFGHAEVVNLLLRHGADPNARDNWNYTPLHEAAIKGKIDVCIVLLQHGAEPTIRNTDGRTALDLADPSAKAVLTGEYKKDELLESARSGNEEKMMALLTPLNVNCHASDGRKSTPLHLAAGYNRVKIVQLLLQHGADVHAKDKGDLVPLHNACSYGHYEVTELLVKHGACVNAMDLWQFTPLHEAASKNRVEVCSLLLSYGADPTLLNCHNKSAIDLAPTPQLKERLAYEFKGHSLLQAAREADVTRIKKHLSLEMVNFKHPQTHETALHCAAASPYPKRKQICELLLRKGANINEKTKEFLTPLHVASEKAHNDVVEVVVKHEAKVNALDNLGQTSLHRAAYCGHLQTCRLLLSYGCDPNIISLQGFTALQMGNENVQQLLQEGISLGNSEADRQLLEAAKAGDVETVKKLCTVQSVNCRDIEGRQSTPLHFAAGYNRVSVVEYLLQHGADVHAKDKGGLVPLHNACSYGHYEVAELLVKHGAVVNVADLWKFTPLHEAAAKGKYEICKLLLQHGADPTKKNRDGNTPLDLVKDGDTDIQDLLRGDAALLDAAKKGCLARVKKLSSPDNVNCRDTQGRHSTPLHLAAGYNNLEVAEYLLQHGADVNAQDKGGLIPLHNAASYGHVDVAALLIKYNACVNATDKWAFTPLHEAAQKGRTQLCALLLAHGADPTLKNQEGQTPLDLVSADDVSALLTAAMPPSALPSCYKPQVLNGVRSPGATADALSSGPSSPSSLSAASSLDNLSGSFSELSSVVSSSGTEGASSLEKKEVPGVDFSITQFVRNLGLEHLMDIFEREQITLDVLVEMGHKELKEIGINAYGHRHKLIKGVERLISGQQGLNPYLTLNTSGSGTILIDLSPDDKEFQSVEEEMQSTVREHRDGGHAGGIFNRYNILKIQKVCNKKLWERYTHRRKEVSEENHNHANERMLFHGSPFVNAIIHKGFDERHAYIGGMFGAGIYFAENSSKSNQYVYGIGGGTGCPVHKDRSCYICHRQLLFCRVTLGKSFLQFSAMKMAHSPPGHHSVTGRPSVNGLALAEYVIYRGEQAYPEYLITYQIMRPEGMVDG
Format: biochemical
Outline: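 TANK-2 (8 μg/ml final) auto-poly(ADP-ribosyl)ation with [3H]-NAD+/NAD donor was run in Ni flash plates in Tris/HCl pH 7.4 buffer with DTT and MgCl2, 120 min at room temperature, then stopped with excess NAD and scintillation-counted. Blank-corrected cpm was expressed as % of enzyme control, and IC50 was linearly interpolated and reported as pIC50.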

Point of comparison: `CCc1cc2ccc(C(C)(C#N)CN3CCc4ccccc4C3)cc2[nH]c1=O` (stereo not shown) [Compound 376], IC50 200 nM. Against it:
- CCc1cc2ccc(C(C)(C#N)Cc3cc(C)nc(Cl)c3)cc2[nH]c1=O (stereo not shown) [Compound 326] — 2-fold higher, 398 nM
- CCc1cc2ccc(C(C)(C#N)Cc3cc(C)nc(C#N)c3)cc2[nH]c1=O (stereo not shown) [Compound 328] — 10-fold lower, 20 nM
- CCc1cc2ccc(C(C)(C#N)Cc3ccnc(F)c3)cc2[nH]c1=O (stereo not shown) [Compound 330] — 2-fold higher, 398 nM
- CCc1cc2ccc(C(C)(C#N)Cc3cccc(F)n3)cc2[nH]c1=O (stereo not shown) [Compound 331] — 2.5-fold lower, 79.4 nM
- CCc1cc2ccc([C@](C)(C#N)Cc3cc(F)cc(F)c3)cc2[nH]c1=O [Compound 333] — 2.5-fold lower, 79.4 nM
- CCc1cc2ccc(C(C)(C#N)Cc3ccc(C(F)(F)F)nc3C)cc2[nH]c1=O (stereo not shown) [Compound 340] — 4-fold higher, 794 nM
- CCc1cc2ccc(C(C)(C#N)Cc3ccnc(Cl)c3)cc2[nH]c1=O (stereo not shown) [Compound 341] — 2.5-fold lower, 79.4 nM
- CCc1cc2ccc(C(C#N)(CC)Cc3cccc(C#N)n3)cc2[nH]c1=O (stereo not shown) [Compound 342] — 5-fold lower, 39.8 nM
- CCc1cc2ccc(C(C)(C#N)CCOc3ccnc(SC)n3)cc2[nH]c1=O (stereo not shown) [Compound 348] — the same, 200 nM
- CCc1cc2ccc(C(C)(C#N)CCOc3ncc(Br)cn3)cc2[nH]c1=O (stereo not shown) [Compound 349] — the same, 200 nM
- CCc1cc2ccc(C(C)(C#N)Cc3nc(C)cc(OC)n3)cc2[nH]c1=O (stereo not shown) [Compound 371] — 1.6-fold lower, 126 nM
- CCc1cc2ccc(C(C)(C#N)CN3CCN(c4ncc(Br)cn4)CC3)cc2[nH]c1=O (stereo not shown) [Compound 374] — 2.5-fold higher, 501 nM
- Cc1cc2ccc([C@@](C)(C#N)[C@@H]3CCCc4ccccc43)cc2[nH]c1=O [Compound 382] — 10-fold higher, 2000 nM
- CCc1cc2ccc(C(C#N)(CC)Cc3cccc(CN)c3)cc2[nH]c1=O (stereo not shown) [Compound 390] — 1.6-fold higher, 316 nM
- CCc1cc2ccc([C@](C)(C#N)C[C@H]3Cc4ccccc4O3)cc2[nH]c1=O [Compound 397] — 2-fold lower, 100 nM
- CCc1cc2ccc(C(C)(C#N)CC3Oc4ccccc4O3)cc2[nH]c1=O (stereo not shown) [Compound 398] — 2.5-fold higher, 501 nM
- CCc1cc2ccc(C(C)(C#N)Cc3cc(F)cc(F)c3)cc2[nH]c1=O (stereo not shown) [Compound 402] — 1.6-fold lower, 126 nM
- CCc1cc2ccc(C(C#N)(CC)C3CCc4ccc(OC)cc43)cc2[nH]c1=O (stereo not shown) [Compound 403] — 13-fold higher, 2510 nM
- Cc1cc2ccc([C@@](C)(C#N)[C@H]3CCc4ccc(Br)cc43)cc2[nH]c1=O [Compound 405] — 25-fold higher, 5010 nM
- Cc1cc2ccc([C@](C)(C#N)[C@@H]3CCc4ccc(Br)cc43)cc2[nH]c1=O [Compound 406] — 25-fold higher, 5010 nM
- Cc1cc2ccc([C@](C)(C#N)[C@H]3CCc4ccc(Br)cc43)cc2[nH]c1=O [Compound 407] — 32-fold higher, 6310 nM
